Active and inactive are the calls of the source.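 Rule for the calls: active = mean EC50 below 10 µM; inactive = the rest.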
target: Type-1 angiotensin II receptor (Homo sapiens) (UniProt P30556); experiment: AGTR1 beta-arrestin recruitment agonism – cell-based, CHO-K1 AGTR1, luminescence, set 5, selectivity assay for APJ receptor agonist project, SAR follow-up (AID 504532); conditions: CHO-K1 AGTR1 beta-arrestin PathHunter, 90 min
Sequence (P30556 whole entry, looked up): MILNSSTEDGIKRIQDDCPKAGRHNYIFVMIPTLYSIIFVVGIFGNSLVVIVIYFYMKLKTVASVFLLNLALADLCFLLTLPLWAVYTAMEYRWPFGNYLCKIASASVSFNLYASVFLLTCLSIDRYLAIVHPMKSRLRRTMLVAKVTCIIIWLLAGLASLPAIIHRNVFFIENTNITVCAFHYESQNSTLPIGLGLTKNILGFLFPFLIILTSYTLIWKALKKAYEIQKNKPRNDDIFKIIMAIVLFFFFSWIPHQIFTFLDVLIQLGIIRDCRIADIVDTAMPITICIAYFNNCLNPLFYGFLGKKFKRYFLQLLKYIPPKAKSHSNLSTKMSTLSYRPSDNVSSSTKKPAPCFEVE

EC50, inactive:
CC1=CC(=O)C(C(C)(C)C)=C/C1=N/OS(=O)(=O)c1cccc(Br)c1 > 79 µM
Cc1cc(N=O)c(C(C)C)cc1O > 79 µM
COc1cccc(S(=O)(=O)O/N=C2\C=C(C(C)C)C(=O)C=C2C)c1 > 79 µM
CC1=CC(=O)C(C(C)C)=C/C1=N/OS(=O)(=O)c1cccc(C#N)c1 > 79 µM
CC1=CC(=O)C(C(C)C)=C/C1=N\OS(=O)(=O)c1cccc(Cl)c1 > 79 µM
CC1=CC(=O)C(C(C)(C)C)=C/C1=N\OS(=O)(=O)C1CCCCC1 > 79 µM
CC1=CC(=O)C(C(C)(C)C)=C/C1=N/OS(=O)(=O)c1cccc(C#N)c1 > 79 µM
CC1=CC(=O)C(C(C)C)=C/C1=N/OS(=O)(=O)c1cccc(C)c1 > 79 µM
Cc1cc(O)c(C(C)(C)C)cc1N=O > 79 µM
CC1=CC(=O)C(C(C)C)=C/C1=N\OS(=O)(=O)c1cn(C)cn1 > 79 µM
O=C1C=CC(=NOS(=O)(=O)c2ccccc2)C=C1c1ccccc1 > 79 µM
CC1=CC(=O)C(C(C)(C)C)=C/C1=N\OS(=O)(=O)c1cn(C)cn1 > 79 µM
CC1=CC(=O)C(C2CCCCC2)=C/C1=N\OS(=O)(=O)c1ccccc1Cl > 79 µM
CC1=CC(=O)C(C(C)C)=C/C1=N/OS(=O)(=O)c1cccc(Br)c1 > 79 µM
CC1=CC(=O)C(C(C)C)=C/C1=N\OS(=O)(=O)c1c(Cl)cccc1Cl > 79 µM
CC1=CC(=O)C(C2CCCCC2)=C/C1=N\OS(=O)(=O)c1cccc(Cl)c1 > 79 µM
CC1=CC(=O)C(C(C)C)=C/C1=N\OS(=O)(=O)c1ccccc1Cl > 79 µM
CC1=CC(=O)C(C(C)C)=C/C1=N\OS(=O)(=O)C1CCCCC1 > 79 µM
CC1=CC(=O)C(C(C)(C)C)=C/C1=N/OS(=O)(=O)c1cccc(C)c1 > 79 µM
CC1=CC(=O)C(C(C)(C)C)=C/C1=N\OS(=O)(=O)c1cccc(Cl)c1 > 79 µM
CC1=CC(=O)C(C(C)(C)C)=C/C1=N\OS(=O)(=O)c1ccccc1Cl > 79 µM
N#Cc1ccc(S(=O)(=O)ON=C2C=CC(=O)C(c3ccccc3)=C2)cc1 > 79 µM
CC1=CC(=O)C(C2CCCCC2)=C/C1=N\OS(=O)(=O)c1c(Cl)cccc1Cl > 79 µM
CC(C)C1=CC(=NOS(=O)(=O)c2ccccc2)C=CC1=O > 79 µM
CC1=CC(=O)C(C2CCCCC2)=C/C1=N/OS(=O)(=O)c1cccc(C)c1 > 79 µM
COc1cccc(S(=O)(=O)O/N=C2\C=C(C3CCCCC3)C(=O)C=C2C)c1 > 79 µM
CC1=CC(=O)C(C2CCCCC2)=C/C1=N\OS(=O)(=O)c1cn(C)cn1 > 79 µM
CC1=CC(=O)C(C2CCCCC2)=C/C1=N/OS(=O)(=O)c1cccc(C#N)c1 > 79 µM
CC1=CC(=O)C(C2CCCCC2)=C/C1=N/OS(=O)(=O)c1cccc(Br)c1 > 79 µM
CC1=CC(=O)C(C(C)(C)C)=C/C1=N\OS(=O)(=O)c1c(Cl)cccc1Cl > 79 µM
COc1cccc(S(=O)(=O)O/N=C2\C=C(C(C)(C)C)C(=O)C=C2C)c1 > 79 µM

Reference: PubChem BioAssay AID504532 (Sanford-Burnham Center for Chemical Genomics, 2011)
